Measurements as given in patent US20230233569A1 (Revolution Medicines, Inc., priority 2020, published 2023).
Like-named read-outs stand apart in the source and are kept apart here.

Experiments:
Assay in all cases: Ras-Raf disruption / FRET / MOA assay (BRAF RBD)
Format in all cases: biochemical
KRAS G12D = KRAS G12D (Homo sapiens, UniProt P01116+P62937, G12D); conditions: with Cyclophilin A
Method in brief: (§1)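 TR-FRET in 25 mM HEPES pH 7.3, 100 mM NaCl, 5 mM MgCl2, 0.1% BSA, 0.002% Tween20 with 25 μM Cyclophilin A, 12.5 nM His6-Ras-GMPPNP, 50 nM GST-BRAF RBD; compound 10-point 3-fold series from 30 μM. After 3 h at 25 °C, Eu anti-His/APC anti-GST added for 1.5 h; IC50 from ratio decrease versus DMSO.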

KRAS G12S = KRAS G12S (Homo sapiens, UniProt P01116+P62937, G12S); conditions: with Cyclophilin A
Method in brief: as §1

KRAS G12V = KRAS G12V (Homo sapiens, UniProt P01116+P62937, G12V); conditions: with Cyclophilin A
Method in brief: as §1

KRAS G13C = KRAS G13C (Homo sapiens, UniProt P01116+P62937, G13C); conditions: with Cyclophilin A
Method in brief: as §1

KRAS G13D = KRAS G13D (Homo sapiens, UniProt P01116+P62937, G13D); conditions: with Cyclophilin A
Method in brief: as §1

KRAS Q61H = KRAS Q61H (Homo sapiens, UniProt P01116+P62937, Q61H)
Method in brief: as §1

KRAS WT = KRAS WT (Homo sapiens, UniProt P01116+P62937); conditions: with Cyclophilin A
Method in brief: as §1

NRAS G12C = NRAS G12C (Homo sapiens, UniProt P01111+P62937, G12C)
Method in brief: as §1

NRAS Q61K = NRAS Q61K (Homo sapiens, UniProt P01111+P62937, Q61K)
Method in brief: as §1

NRAS Q61R = NRAS Q61R (Homo sapiens, UniProt P01111+P62937, Q61R)
Method in brief: as §1

NRAS WT = NRAS WT (Homo sapiens, UniProt P01111+P62937)
Method in brief: as §1

KRAS G12C = KRAS G12C (Homo sapiens, UniProt P01116+P62937, G12C); conditions: with Cyclophilin A
Method in brief: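 His6-K-Ras G12C-GMPPNP (12.5 nM), GST-BRAF RBD (50 nM) and tagless Cyclophilin A (25 μM) incubated 3 h at 25 °C with compound (10-point 3-fold series from 30 μM), pH 7.3 HEPES buffer. Anti-His Eu/anti-GST APC added for 1.5 h; decreased TR-FRET ratio vs DMSO gives IC50.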

[1] = Ras-Raf disruption, read-out: KRAS G12D FRET data IC50
[2] = Ras-Raf disruption, read-out: KRAS G12S FRET data IC50
[3] = Ras-Raf disruption, read-out: KRAS G12V FRET data IC50
[4] = Ras-Raf disruption, read-out: KRAS G13C FRET data IC50
[5] = Ras-Raf disruption, read-out: KRAS G13D FRET data IC50
[6] = KRAS Q61H, read-out: KRAS Q61H FRET data IC50
[7] = Ras-Raf disruption, read-out: KRAS WT FRET data IC50
[8] = NRAS G12C, read-out: NRAS G12C FRET data IC50
[9] = NRAS Q61K, read-out: NRAS Q61K FRET data IC50
[10] = NRAS Q61R, read-out: NRAS Q61R FRET data IC50
[11] = NRAS WT, read-out: NRAS WT FRET data IC50
[12] = Ras-Raf disruption, read-out: KRAS G12C FRET data IC50

NRAS Q61R, sequence (P01111 whole entry Q61R): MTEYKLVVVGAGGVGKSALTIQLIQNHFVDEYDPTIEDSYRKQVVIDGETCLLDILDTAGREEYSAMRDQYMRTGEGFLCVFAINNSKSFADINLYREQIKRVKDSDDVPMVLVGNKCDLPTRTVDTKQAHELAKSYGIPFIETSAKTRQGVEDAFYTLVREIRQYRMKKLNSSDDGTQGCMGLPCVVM
NRAS Q61R, sequence (P62937 whole entry): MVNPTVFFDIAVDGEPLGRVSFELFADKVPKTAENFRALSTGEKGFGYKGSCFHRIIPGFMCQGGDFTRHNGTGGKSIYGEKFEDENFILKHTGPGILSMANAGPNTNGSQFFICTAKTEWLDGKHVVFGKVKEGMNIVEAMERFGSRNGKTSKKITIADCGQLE
NRAS WT, sequence (P01111 whole entry): as the sequence (P01111 whole entry Q61R) above, with R61Q counted along it
NRAS WT, sequence (P62937 whole entry): as the sequence (P62937 whole entry) above
KRAS G12V, sequence (P01116 1-169 isoform P01116-2 G12V limits assumed): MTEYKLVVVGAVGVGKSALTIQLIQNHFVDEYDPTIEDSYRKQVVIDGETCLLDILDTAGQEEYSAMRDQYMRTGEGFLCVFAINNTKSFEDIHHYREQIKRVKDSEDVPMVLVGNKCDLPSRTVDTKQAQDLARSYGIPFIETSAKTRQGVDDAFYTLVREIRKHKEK
KRAS G12V, sequence (P62937 whole entry): as the sequence (P62937 whole entry) above
KRAS G13C, sequence (P01116 1-169 isoform P01116-2 G13C limits assumed): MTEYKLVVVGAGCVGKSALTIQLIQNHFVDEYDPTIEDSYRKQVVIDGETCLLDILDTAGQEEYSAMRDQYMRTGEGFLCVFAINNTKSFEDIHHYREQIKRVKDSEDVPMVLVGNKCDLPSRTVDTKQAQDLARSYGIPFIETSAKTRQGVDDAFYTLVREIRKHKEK
KRAS G13C, sequence (P62937 whole entry): as the sequence (P62937 whole entry) above
NRAS Q61K, sequence (P01111 whole entry Q61K): as the sequence (P01111 whole entry Q61R) above, with R61K counted along it
NRAS Q61K, sequence (P62937 whole entry): as the sequence (P62937 whole entry) above
NRAS G12C, sequence (P01111 whole entry G12C): as the sequence (P01111 whole entry Q61R) above, with G12C, R61Q counted along it
NRAS G12C, sequence (P62937 whole entry): as the sequence (P62937 whole entry) above
KRAS G12S, sequence (P01116 1-169 isoform P01116-2 G12S limits assumed): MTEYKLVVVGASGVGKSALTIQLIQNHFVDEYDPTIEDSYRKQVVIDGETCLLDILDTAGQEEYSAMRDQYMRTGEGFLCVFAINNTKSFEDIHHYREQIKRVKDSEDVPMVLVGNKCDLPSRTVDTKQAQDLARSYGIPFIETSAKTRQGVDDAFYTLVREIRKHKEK
KRAS G12S, sequence (P62937 whole entry): as the sequence (P62937 whole entry) above
KRAS WT, sequence (P01116 1-169 isoform P01116-2 limits assumed): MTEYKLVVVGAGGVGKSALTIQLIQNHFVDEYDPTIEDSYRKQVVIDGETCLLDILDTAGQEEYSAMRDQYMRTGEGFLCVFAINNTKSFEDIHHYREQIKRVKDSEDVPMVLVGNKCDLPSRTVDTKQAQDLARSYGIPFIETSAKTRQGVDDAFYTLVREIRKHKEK
KRAS WT, sequence (P62937 whole entry): as the sequence (P62937 whole entry) above
KRAS G12C, sequence (P01116 1-169 isoform P01116-2 G12C limits assumed): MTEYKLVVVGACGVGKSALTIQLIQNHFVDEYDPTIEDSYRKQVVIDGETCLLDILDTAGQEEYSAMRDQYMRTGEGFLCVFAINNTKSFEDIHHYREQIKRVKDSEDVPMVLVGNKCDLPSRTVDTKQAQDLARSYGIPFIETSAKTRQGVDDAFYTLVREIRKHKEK
KRAS G12C, sequence (P62937 whole entry): as the sequence (P62937 whole entry) above
KRAS Q61H, sequence (P01116 1-169 isoform P01116-2 Q61H limits assumed): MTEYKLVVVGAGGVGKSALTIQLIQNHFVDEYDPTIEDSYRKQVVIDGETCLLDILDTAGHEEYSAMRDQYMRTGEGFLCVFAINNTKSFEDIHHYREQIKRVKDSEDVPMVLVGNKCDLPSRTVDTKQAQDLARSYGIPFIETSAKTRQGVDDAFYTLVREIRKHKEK
KRAS Q61H, sequence (P62937 whole entry): as the sequence (P62937 whole entry) above
KRAS G13D, sequence (P01116 1-169 isoform P01116-2 G13D limits assumed): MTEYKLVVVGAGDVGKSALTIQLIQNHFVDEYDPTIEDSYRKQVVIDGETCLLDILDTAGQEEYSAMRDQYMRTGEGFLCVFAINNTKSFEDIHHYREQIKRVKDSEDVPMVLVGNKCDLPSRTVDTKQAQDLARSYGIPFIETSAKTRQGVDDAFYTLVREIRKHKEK
KRAS G13D, sequence (P62937 whole entry): as the sequence (P62937 whole entry) above
KRAS G12D, sequence (P01116 1-169 isoform P01116-2 G12D limits assumed): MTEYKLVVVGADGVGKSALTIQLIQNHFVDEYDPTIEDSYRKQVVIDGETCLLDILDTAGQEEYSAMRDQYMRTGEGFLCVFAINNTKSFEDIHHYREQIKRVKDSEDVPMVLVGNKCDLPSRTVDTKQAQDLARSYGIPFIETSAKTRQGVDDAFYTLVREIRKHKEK
KRAS G12D, sequence (P62937 whole entry): as the sequence (P62937 whole entry) above

| Structure (SMILES) | IC50 (KRAS G12D; [1]) [nM] | IC50 (KRAS G12S; [2]) [nM] | IC50 (KRAS G12V; [3]) [nM] | IC50 (KRAS G13C; [4]) [nM] | IC50 (KRAS G13D; [5]) [nM] | IC50 (KRAS Q61H; [6]) [nM] | IC50 (KRAS WT; [7]) [nM] | IC50 (NRAS G12C; [8]) [nM] | IC50 (NRAS Q61K; [9]) [nM] | IC50 (NRAS Q61R; [10]) [nM] | IC50 (NRAS WT; [11]) [nM] | IC50 (KRAS G12C; [12]) [nM] | further results |
| --- | --- | --- | --- | --- | --- | --- | --- | --- | --- | --- | --- | --- | --- |
| CCn1c(-c2cccnc2[C@H](C)OC)c2c3cc(ccc31)-c1cc(O)cc(c1)C[C@H](NC(=O)[C@H](C(C)C)N(C)C(=O)N(C)C1CN(C(=O)[C@H]3CN3)C1)C(=O)N1CCC[C@H](N1)C(=O)OCC(C)(C)C2 (atropisomer, axis not shown) [Example 203] | 100 to 1000 | 100 to 1000 | 100 to 1000 | 10 to 100 | 100 to 1000 | 10 to 100 | 100 to 1000 | < 10 | 100 to 1000 | 100 to 1000 | 100 to 1000 | < 10 |  |
| CCn1c(-c2cccnc2[C@H](C)OC)c2c3cc(ccc31)-c1cc(O)cc(c1)C[C@H](NC(=O)[C@H](C(C)C)N(C)C(=O)[C@]1(F)CCN(C(=O)[C@H]3CN3)C1)C(=O)N1CCC[C@H](N1)C(=O)OCC(C)(C)C2 (atropisomer, axis not shown) [Example 311] | 100 to 1000 | 100 to 1000 | 100 to 1000 | 10 to 100 | 100 to 1000 | 10 to 100 | 100 to 1000 | < 10 | 100 to 1000 | 100 to 1000 | 10 to 100 | < 10 |  |
| CCn1c(-c2cccnc2[C@H](C)OC)c2c3cc(ccc31)-c1cc(O)cc(c1)C[C@H](NC(=O)[C@H](C(C)C)N(C)C(=O)CN(C)S(=O)(=O)[C@H]1CN1C)C(=O)N1CCC[C@H](N1)C(=O)OCC(C)(C)C2 (single isomer, unassigned) [Example 91] | 100 to 1000 | 10 to 100 | 100 to 1000 | 10 to 100 | 100 to 1000 | 10 to 100 | 10 to 100 | 10 to 100 | 100 to 1000 | 100 to 1000 | 10 to 100 | 10 to 100 |  |
| CCn1c(-c2cccnc2[C@H](C)OC)c2c3cc(ccc31)-c1cc(O)cc(c1)C[C@H](NC(=O)[C@H](C(C)C)N(C)C(=O)[C@@H]1CCCN(C(=O)[C@@H]3CN3)C1)C(=O)N1CCC[C@H](N1)C(=O)OCC(C)(C)C2 [Example 238] | 100 to 1000 | 10 to 100 | 100 to 1000 | 10 to 100 | 100 to 1000 | 10 to 100 | 10 to 100 | 10 to 100 | 100 to 1000 | 100 to 1000 | 10 to 100 | 10 to 100 |  |
| CCn1c(-c2cccnc2[C@H](C)OC)c2c3cc(ccc31)-c1cc(O)cc(c1)C[C@H](NC(=O)[C@H](C1CCCC1)N(C)C(=O)[C@H](C)N(C)C(=O)[C@@H]1N[C@@H]1C1CC1)C(=O)N1CCC[C@H](N1)C(=O)OCC(C)(C)C2 [Example 328] |  |  |  |  |  |  |  |  |  |  |  |  | IC50 (KRAS G12D; KRAS G12D FRET data IC50, Ras-Raf disruption): 100 to 1000 nM; IC50 (KRAS G12S; KRAS G12S FRET data IC50, Ras-Raf disruption): 10 to 100 nM; IC50 (KRAS G12V; KRAS G12V FRET data IC50, Ras-Raf disruption): 10 to 100 nM; IC50 (KRAS G13C; KRAS G13C FRET data IC50, Ras-Raf disruption): 10 to 100 nM; IC50 (KRAS G13D; KRAS G13D FRET data IC50, Ras-Raf disruption): 100 to 1000 nM; IC50 (KRAS Q61H): 10 to 100 nM; IC50 (KRAS WT; KRAS WT FRET data IC50, Ras-Raf disruption): 10 to 100 nM; IC50 (NRAS G12C; NRAS G12C FRET data IC50, NRAS G12C): 10 to 100 nM; IC50 (NRAS Q61K): 100 to 1000 nM; IC50 (NRAS Q61R): 100 to 1000 nM; IC50 (NRAS WT): 10 to 100 nM; IC50 (KRAS G12C; KRAS G12C FRET data IC50, Ras-Raf disruption): 10 to 100 nM |
| CCn1c(-c2cccnc2[C@H](C)OC)c2c3cc(ccc31)-c1cc(O)cc(c1)C[C@H](NC(=O)[C@H](C(C)C)N(C)C(=O)[C@@H]1CCCN(C(=O)[C@H]3CN3)C1)C(=O)N1CCC[C@H](N1)C(=O)OCC(C)(C)C2 (atropisomer, axis not shown) [Example 237] | 100 to 1000 | 10 to 100 | 100 to 1000 | 10 to 100 | 100 to 1000 | 10 to 100 | 10 to 100 | 10 to 100 | 100 to 1000 | 100 to 1000 | 10 to 100 | 10 to 100 |  |
